According to PubChem BioAssay AID1259411 (Chemical Carcinogenesis Research Information System (CCRIS), 2018):
The source made the active and inactive calls. How the calls were made is not given here.

Test system: rodent carcinogenicity bioassays, tumor incidence
Test: CCRIS carcinogenicity studies
How it was run: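 Archive of carcinogenicity, mutagenicity, tumor promotion and tumor inhibition results drawn from journals, NCI reports and other sources, expert-reviewed; covers 1985-2011 and is no longer updated.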

With NC(=O)N(CCCO)N=O the carcinogen call (Species: RAT, Strain/Sex: F344/FEMALE, Route: GAVAGE, Dose: 0, 8 MG/ML (TOTAL DOSE 0; 0.9 MMOL) IN 2 ML ETHYL ACETATE AND CORN OIL (1:2) 2/WK FOR 40 WK (STUDY DURATION: LIFETIME), Dose: 0, 8 MG/ML (TOTAL DOSE 0; 0.9 MMOL) IN 2 ML ETHYL ACETATE AND CORN OIL (1:2) 2/WK FOR 40 WK (STUDY DURATION: LIFETIME), Tumor Site: Type of Lesion: THYROID: C-CELL TUMOR) was “active; positive”, the carcinogen call (Species: RAT, Strain/Sex: F344/FEMALE, Route: GAVAGE, Dose: 0, 8 MG/ML IN 0.2 ML ETHYL ACETATE AND CORN OIL 2/WK FOR 40 WK (STUDY DURATION: LIFESPAN), Tumor Site: Type of Lesion: THYROID: C-CELL TUMOR, UTERUS: TUMOR) was “active; positive” and the carcinogen call (Species: RAT, Strain/Sex: F344/FEMALE, Route: GAVAGE, Dose: 0, 16 MG/ML (TOTAL DOSE 0; 1.3 MMOL) IN 2 ML ETHYL ACETATE AND CORN OIL (1:2) 2/WK FOR 30 WK (STUDY DURATION: LIFETIME), Dose: 0, 16 MG/ML (TOTAL DOSE 0; 1.3 MMOL) IN 2 ML ETHYL ACETATE AND CORN OIL (1:2) 2/WK FOR 30 WK (STUDY DURATION: LIFETIME)) was “inactive; negative”. For the same compound, the carcinogen call (Species: RAT, Strain/Sex: F344/FEMALE, Route: GAVAGE, Dose: 0, 16 MG/ML IN 0.2 ML ETHYL ACETATE AND CORN OIL 2/WK FOR 30 WK (STUDY DURATION: LIFESPAN), Tumor Site: Type of Lesion: LIVER: TUMOR, FORESTOMACH: TUMOR, THYROID: C-CELL TUMOR, UTERUS: TUMOR, DUODENUM: TUMOR, Tumor Site: Type of Lesion: LIVER: TUMOR, FORESTOMACH: TUMOR, THYROID: C-CELL TUMOR, UTERUS: TUMOR, DUODENUM: TUMOR) was “active; positive”, the carcinogen call (Species: RAT, Strain/Sex: F344/MALE, Route: GAVAGE, Dose: 0, 8 MG/ML (TOTAL DOSE 0; 0.9 MMOL) IN 2 ML ETHYL ACETATE AND CORN OIL (1:2) 2/WK FOR 40 WK (STUDY DURATION: LIFETIME), Dose: 0, 8 MG/ML (TOTAL DOSE 0; 0.9 MMOL) IN 2 ML ETHYL ACETATE AND CORN OIL (1:2) 2/WK FOR 40 WK (STUDY DURATION: LIFETIME)) was “inactive; negative” and the carcinogen call (Species: RAT, Strain/Sex: F344/MALE, Route: GAVAGE, Dose: 0, 8 MG/ML IN 0.2 ML ETHYL ACETATE AND CORN OIL 2/WK FOR 40 WK (STUDY DURATION: LIFESPAN), Tumor Site: Type of Lesion: FORESTOMACH: TUMOR) was “active; positive”. The carcinogen call (Species: RAT, Strain/Sex: F344/MALE, Route: GAVAGE, Dose: 0, 16 MG/ML (TOTAL DOSE 0; 1.3 MMOL) IN 2 ML ETHYL ACETATE AND CORN OIL (1:2) 2/WK FOR 30 WK (STUDY DURATION: LIFETIME), Dose: 0, 16 MG/ML (TOTAL DOSE 0; 1.3 MMOL) IN 2 ML ETHYL ACETATE AND CORN OIL (1:2) 2/WK FOR 30 WK (STUDY DURATION: LIFETIME)) was “inactive; negative” and the carcinogen call (Species: RAT, Strain/Sex: F344/MALE, Route: GAVAGE, Dose: 0, 16 MG/ML IN 0.2 ML ETHYL ACETATE AND CORN OIL 2/WK FOR 30 WK (STUDY DURATION: LIFESPAN), Tumor Site: Type of Lesion: LUNG: TUMOR, GLANDULAR STOMACH: TUMOR, SKIN: TUMOR, Tumor Site: Type of Lesion: LUNG: TUMOR, GLANDULAR STOMACH: TUMOR, SKIN: TUMOR) was “active; positive”.

With COC1=CC(=O)C[C@@H](C)[C@]12Oc1c(Cl)c(OC)cc(OC)c1C2=O the carcinogen call (Species: MOUSE, Strain/Sex: CD-1/MALE,FEMALE, Route: ORAL, Dose: 1% IN DIET FOR 12 TO 16 MO, Tumor Site: Type of Lesion: LIVER: HEPATOMA) was “active; positive” and the carcinogen call (Species: MOUSE, Strain/Sex: ICR/MALE, Route: SUBCUTANEOUS, Dose: 0.5, 0.5, 1.0 OR 1.0 MG SUSPENDED IN TRICAPRYLIN (3 MG/ANIMAL, TOTAL DOSE) ON DAYS 1, 7, 14 AND 21 OF AGE, Tumor Site: Type of Lesion: LIVER: HEPATOMA) was “active; positive”.

For OC1c2cc3c4c(ccc5cccc(c54)C3)c2C2OC2C1O (stereo not drawn), the carcinogen call (Species: MOUSE, Strain/Sex: ICR/FEMALE, Route: INTRAPERITONEAL, Dose: 0, 500 NMOL (TOTAL DOSE) ADMINISTERED IN DOSES OF 1/7, 2/7, AND 4/7 ON DAYS 1, 7, AND 15 OF LIFE, RESPECTIVELY (STUDY DU, Tumor Site: Type of Lesion: LUNG: TUMOR) was “active; positive” and the carcinogen call (Species: MOUSE, Strain/Sex: ICR/MALE, Route: INTRAPERITONEAL, Dose: 0, 500 NMOL (TOTAL DOSE) ADMINISTERED IN DOSES OF 1/7, 2/7, AND 4/7 ON DAYS 1, 7 AND 15 OF LIFE , RESPECTIVELY (STUDY DU, Tumor Site: Type of Lesion: LUNG: TUMOR, LIVER: TUMOR) was “active; positive”.

With C=CBr the carcinogen call (Species: RAT, Strain/Sex: SPRAGUE-DAWLEY/FEMALE, Route: INHALATION, Dose: 10, 50, 250, 1250 PPM 6 HR/D 5/WK FOR 24 MO, Dose: 10, 50, 250, 1250 PPM 6 HR/D 5/WK FOR 24 MO, Tumor Site: Type of Lesion: LIVER: ANGIOSARCOMA, EAR (ZYMBAL GLAND): SQUAMOUS CELL CARCINOMA) was “active; positive” and the carcinogen call (Species: RAT, Strain/Sex: SPRAGUE-DAWLEY/MALE, Route: INHALATION, Dose: 10, 50, 250, 1250 PPM 6 HR/D 5/WK FOR 24 MO, Dose: 10, 50, 250, 1250 PPM 6 HR/D 5/WK FOR 24 MO, Tumor Site: Type of Lesion: LIVER: ANGIOSARCOMA, EAR (ZYMBAL GLAND): PAPILLOMA, SQUAMOUS CELL CARCINOMA) was “active; positive”.

Nc1ccc(NCCO)c([N+](=O)[O-])c1 was tested, and the carcinogen call (Species: MOUSE, Strain/Sex: B6C3F1/MALE, Route: GAVAGE, Dose: 0, 125, 250 MG/KG IN CORN OIL 5 D/WK FOR 104 WK (STUDY DURATION: 105 WK), Dose: 0, 125, 250 MG/KG IN CORN OIL 5 D/WK FOR 104 WK (STUDY DURATION: 105 WK), Tumor Site: Type of Lesion: LIVER: HEPATOCELLULAR ADENOMA OR CARCINOMA) was “equivocal”, the carcinogen call (Species: RAT, Strain/Sex: F344/FEMALE, Route: GAVAGE, Dose: 0, 250, 500 MG/KG IN CORN OIL 5 D/WK FOR 105 WK (STUDY DURATION: 105 WK), Dose: 0, 250, 500 MG/KG IN CORN OIL 5 D/WK FOR 105 WK (STUDY DURATION: 105 WK)) was “inactive; negative” and the carcinogen call (Species: RAT, Strain/Sex: F344/MALE, Route: GAVAGE, Dose: 0, 250, 500 MG/KG IN CORN OIL 5 D/WK FOR 105 WK (STUDY DURATION: 105 WK), Dose: 0, 250, 500 MG/KG IN CORN OIL 5 D/WK FOR 105 WK (STUDY DURATION: 105 WK)) was “inactive; negative”.

For c1ccc(Nc2ccc(Nc3ccccc3)cc2)cc1, the carcinogen call (Species: RAT, Strain/Sex: F344/FEMALE, Route: ORAL, Dose: 0, 0.5, 2% IN DIET FOR 104 WK (STUDY DURATION: 112 WK), Dose: 0, 0.5, 2% IN DIET FOR 104 WK (STUDY DURATION: 112 WK)) was “inactive; negative” and the carcinogen call (Species: RAT, Strain/Sex: F344/MALE, Route: ORAL, Dose: 0, 0.5, 2% IN DIET FOR 104 WK (STUDY DURATION: 112 WK), Dose: 0, 0.5, 2% IN DIET FOR 104 WK (STUDY DURATION: 112 WK)) was “inactive; negative”.

For CON(C)C(=O)Nc1ccc(Cl)c(Cl)c1, the carcinogen call (Species: Mouse, Strain/Sex: CD-1/Female (80/Group), Route: Oral, Dose: 0, 50, 150, 1500 ppm of 97% linuron in diet for 24 mo, study duration 24 mo, Dose: 0, 50, 150, 1500 ppm of 97% linuron in diet for 24 mo, study duration 24 mo, Tumor Site: Type of Lesion: Liver: hepatocellular adenomas (high dose only)) was “active; positive”, the carcinogen call (Species: Mouse, Strain/Sex: CD-1/Male (80/Group), Route: Oral, Dose: 0, 50, 150, 1500 ppm of 97% linuron in diet for 24 mo, study duration 24 mo, Dose: 0, 50, 150, 1500 ppm of 97% linuron in diet for 24 mo, study duration 24 mo) was “inactive; negative” and the carcinogen call (Species: Rat, Strain/Sex: Charles River CD/Female (70/Group), Route: Oral, Dose: 0, 50, 125, 625 ppm 97% linuron in diet for 24 mo, study duration 24 mo, Dose: 0, 50, 125, 625 ppm 97% linuron in diet for 24 mo, study duration 24 mo) was “inactive; negative”. For the same compound, the carcinogen call (Species: Rat, Strain/Sex: Charles River CD/Male (70/Group), Route: Oral, Dose: 0, 50, 125, 625 ppm 97% linuron in diet for 24 mo, study duration 24 mo, Dose: 0, 50, 125, 625 ppm 97% linuron in diet for 24 mo, study duration 24 mo, Tumor Site: Type of Lesion: Testes: Interstitial cell adenoma) was “active; positive” and the carcinogen call (Species: Rat, Strain/Sex: Crl:CD (SD)BR /Male (25/Group), Route: Oral, Dose: 0 (control diet), control diet for 18 mo followed by 625 ppm linuron for 6 mo, control diet for 1 yr followed by 625 ppm, Dose: 0 (control diet), control diet for 18 mo followed by 625 ppm linuron for 6 mo, control diet for 1 yr followed by 625 ppm, Tumor Site: Type of Lesion: Testes: interstitial cell tumors (0/25, 2/25 (6-mo. feed), 6/25 (12 mo feed))) was “active; positive”.

CCCCCC[C@@H](O)C/C=C\CCCCCCCC(=O)O (tested in a mixture with another compound) was tested, and the carcinogen call (Species: MOUSE, Strain/Sex: C57BL/FEMALE, Route: ORAL, Dose: 0, 5% IN DIET FOR 80 WKS (STUDY DURATION: 80 WKS)) was “inactive; negative”, the carcinogen call (Species: MOUSE, Strain/Sex: C57BL/MALE, Route: ORAL, Dose: 0, 5% IN DIET FOR 80 WKS (study duration: 80 WKS)) was “inactive; negative” and the carcinogen call (Species: RAT, Strain/Sex: WISTAR/FEMALE, Route: ORAL, Dose: 0, 5% IN DIET FOR 2 YR (STUDY DURATION: 2 YR)) was “inactive; negative”. For the same compound, the carcinogen call (Species: RAT, Strain/Sex: WISTAR/MALE, Route: ORAL, Dose: 0, 5% IN DIET FOR 2 YR (STUDY DURATION: 2 YEARS)) was “inactive; negative”.
